System: 324938-238-R-J1-PDC complex spheroid viability
Experiment: Anticancer human tumor 324938-238-R-J1-PDC patient-derived bladder carcinoma cell line growth inhibition
Details: for IC50: curve of first compound; for viability, T/C: stronger effect = lower value
How it was run: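 Complex spheroids of tumor cells with HUVEC and human MSCs, exposed to iadademstat combined with other agents. Each agent tested in half-log steps from near clinical Cmax (else 10 microM top), DMSO ≤0.25%.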

[1] = second compound 0.1 µM, first compound 0.0316 µM
[2] = second compound 0.1 µM, first compound 0.1 µM
[3] = second compound 0.1 µM, first compound 0.316 µM
[4] = second compound 0.1 µM, first compound 1 µM
[5] = second compound 0.316 µM, first compound 0.0316 µM
[6] = second compound 0.316 µM, first compound 0.1 µM
[7] = second compound 0.316 µM, first compound 0.316 µM
[8] = second compound 0.316 µM, first compound 1 µM
[9] = second compound 1 µM, first compound 0.0316 µM
[10] = second compound 1 µM, first compound 0.1 µM
[11] = second compound 1 µM, first compound 0.316 µM
[12] = second compound 1 µM, first compound 1 µM
[13] = second compound 3.16 µM, first compound 0.0316 µM
[14] = second compound 3.16 µM, first compound 0.1 µM
[15] = second compound 3.16 µM, first compound 0.316 µM
[16] = second compound 3.16 µM, first compound 1 µM
[17] = second compound 10 µM, first compound 0.0316 µM
[18] = second compound 10 µM, first compound 0.1 µM
[19] = second compound 10 µM, first compound 0.316 µM
[20] = second compound 10 µM, first compound 1 µM
[21] = second compound 0.1 µM, first compound 0.00316 µM
[22] = second compound 0.1 µM, first compound 0.01 µM
[23] = second compound 0.316 µM, first compound 0.00316 µM
[24] = second compound 0.316 µM, first compound 0.01 µM
[25] = second compound 1 µM, first compound 0.00316 µM
[26] = second compound 1 µM, first compound 0.01 µM
[27] = second compound 3.16 µM, first compound 0.00316 µM
[28] = second compound 3.16 µM, first compound 0.01 µM
[29] = second compound 10 µM, first compound 0.00316 µM
[30] = second compound 10 µM, first compound 0.01 µM
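Further: spheroids also contain HUVEC and human MSCs and agents combined with iadademstat; spheroids exposed to agents for 7 days before readout.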

CC(C)c1c(-c2ccccc2)nc2c(C#N)c[nH]n2c1=O + NC1CC1c1ccc(-c2cccc(O)c2)cc1
IC50 (second compound 0.1 µM): > 10000 nM
IC50 (second compound 0.316 µM): > 10000 nM
IC50 (second compound 1 µM): > 10000 nM
IC50 (second compound 3.16 µM): > 10000 nM
IC50 (second compound 10 µM): > 10000 nM
viability, T/C [1]: 104%
viability, T/C [2]: 98.2%
viability, T/C [3]: 101%
viability, T/C [4]: 94%
viability, T/C (second compound 0.1 µM, first compound 3.16 µM): 90.8%
viability, T/C (second compound 0.1 µM, first compound 10 µM): 72.6%
viability, T/C [5]: 82.9%
viability, T/C [6]: 84.9%
viability, T/C [7]: 87.2%
viability, T/C [8]: 82.6%
viability, T/C (second compound 0.316 µM, first compound 3.16 µM): 88.7%
viability, T/C (second compound 0.316 µM, first compound 10 µM): 79.1%
viability, T/C [9]: 85.7%
viability, T/C [10]: 99.3%
viability, T/C [11]: 85.4%
viability, T/C [12]: 89.1%
viability, T/C (second compound 1 µM, first compound 3.16 µM): 81.7%
viability, T/C (second compound 1 µM, first compound 10 µM): 81%
viability, T/C [13]: 86.7%
viability, T/C [14]: 92.1%
viability, T/C [15]: 86.5%
viability, T/C [16]: 89.7%
viability, T/C (second compound 3.16 µM, first compound 3.16 µM): 82.7%
viability, T/C (second compound 3.16 µM, first compound 10 µM): 77.3%
viability, T/C [17]: 89.5%
viability, T/C [18]: 85.4%
viability, T/C [19]: 86.9%
viability, T/C [20]: 88.9%
viability, T/C (second compound 10 µM, first compound 3.16 µM): 89.3%
viability, T/C (second compound 10 µM, first compound 10 µM): 80.8%

CC[C@@]1(O)C(=O)OCc2c1cc1n(c2=O)Cc2cc3c(CN(C)C)c(O)ccc3nc2-1 + NC1CCC(NC2CC2c2ccccc2)CC1
IC50 (second compound 0.1 µM): 1.54 nM
IC50 (second compound 0.316 µM): 1.49 nM
IC50 (second compound 1 µM): 1.58 nM
IC50 (second compound 3.16 µM): 1.42 nM
IC50 (second compound 10 µM): 1.16 nM
viability, T/C (second compound 0.1 µM, first compound 0.000316 µM): 84.7%
viability, T/C (second compound 0.1 µM, first compound 0.001 µM): 64.7%
viability, T/C [21]: 25.5%
viability, T/C [22]: 9.38%
viability, T/C [1]: 7.9%
viability, T/C [2]: 8.7%
viability, T/C (second compound 0.316 µM, first compound 0.000316 µM): 82.5%
viability, T/C (second compound 0.316 µM, first compound 0.001 µM): 63.2%
viability, T/C [23]: 25.3%
viability, T/C [24]: 9.31%
viability, T/C [5]: 9.04%
viability, T/C [6]: 8.45%
viability, T/C (second compound 1 µM, first compound 0.000316 µM): 83.2%
viability, T/C (second compound 1 µM, first compound 0.001 µM): 66.3%
viability, T/C [25]: 25.4%
viability, T/C [26]: 8.84%
viability, T/C [9]: 9.27%
viability, T/C [10]: 8.86%
viability, T/C (second compound 3.16 µM, first compound 0.000316 µM): 74.5%
viability, T/C (second compound 3.16 µM, first compound 0.001 µM): 61.1%
viability, T/C [27]: 24.9%
viability, T/C [28]: 10.1%
viability, T/C [13]: 8.96%
viability, T/C [14]: 9.71%
viability, T/C (second compound 10 µM, first compound 0.000316 µM): 74.2%
viability, T/C (second compound 10 µM, first compound 0.001 µM): 53.7%
viability, T/C [29]: 23.9%
viability, T/C [30]: 9.28%
viability, T/C [17]: 9.85%
viability, T/C [18]: 9.19%

COc1cc(C2c3cc4c(cc3C(OC3OC5COC(C)OC5C(O)C3O)C3COC(=O)C23)OCO4)cc(OC)c1O (stereo not given) + NC1CCC(NC2CC2c2ccccc2)CC1
IC50 (second compound 0.1 µM): 56.7 nM
IC50 (second compound 0.316 µM): 54.8 nM
IC50 (second compound 1 µM): 51.3 nM
IC50 (second compound 3.16 µM): 54.7 nM
IC50 (second compound 10 µM): 83.3 nM
viability, T/C (second compound 0.1 µM, first compound 0.00949 µM): 83.9%
viability, T/C (second compound 0.1 µM, first compound 0.03 µM): 67%
viability, T/C (second compound 0.1 µM, first compound 0.0949 µM): 35.3%
viability, T/C (second compound 0.1 µM, first compound 0.3 µM): 22.2%
viability, T/C (second compound 0.1 µM, first compound 0.949 µM): 21.9%
viability, T/C (second compound 0.1 µM, first compound 3 µM): 9.11%
viability, T/C (second compound 0.316 µM, first compound 0.00949 µM): 84.9%
viability, T/C (second compound 0.316 µM, first compound 0.03 µM): 64.9%
viability, T/C (second compound 0.316 µM, first compound 0.0949 µM): 35.3%
viability, T/C (second compound 0.316 µM, first compound 0.3 µM): 23.4%
viability, T/C (second compound 0.316 µM, first compound 0.949 µM): 19%
viability, T/C (second compound 0.316 µM, first compound 3 µM): 10%
viability, T/C (second compound 1 µM, first compound 0.00949 µM): 76.4%
viability, T/C (second compound 1 µM, first compound 0.03 µM): 61.6%
viability, T/C (second compound 1 µM, first compound 0.0949 µM): 36.8%
viability, T/C (second compound 1 µM, first compound 0.3 µM): 22.6%
viability, T/C (second compound 1 µM, first compound 0.949 µM): 22.1%
viability, T/C (second compound 1 µM, first compound 3 µM): 10.1%
viability, T/C (second compound 3.16 µM, first compound 0.00949 µM): 71.8%
viability, T/C (second compound 3.16 µM, first compound 0.03 µM): 64%
viability, T/C (second compound 3.16 µM, first compound 0.0949 µM): 36.1%
viability, T/C (second compound 3.16 µM, first compound 0.3 µM): 27.1%
viability, T/C (second compound 3.16 µM, first compound 0.949 µM): 21.3%
viability, T/C (second compound 3.16 µM, first compound 3 µM): 12.1%
viability, T/C (second compound 10 µM, first compound 0.00949 µM): 67.4%
viability, T/C (second compound 10 µM, first compound 0.03 µM): 67.9%
viability, T/C (second compound 10 µM, first compound 0.0949 µM): 47.1%
viability, T/C (second compound 10 µM, first compound 0.3 µM): 23.8%
viability, T/C (second compound 10 µM, first compound 0.949 µM): 18.6%
viability, T/C (second compound 10 µM, first compound 3 µM): 13.2%

Nc1ncn(C2CC(O)C(CO)O2)c(=O)n1 (stereo not given) + NC1CCC(NC2CC2c2ccccc2)CC1
IC50 (second compound 0.1 µM): 177 nM
IC50 (second compound 0.316 µM): 256 nM
IC50 (second compound 1 µM): 159 nM
IC50 (second compound 3.16 µM): 129 nM
IC50 (second compound 10 µM): 237 nM
viability, T/C [21]: 71.8%
viability, T/C [22]: 66%
viability, T/C [1]: 59.3%
viability, T/C [2]: 56.1%
viability, T/C [3]: 44%
viability, T/C [4]: 40.3%
viability, T/C [23]: 74.9%
viability, T/C [24]: 67.1%
viability, T/C [5]: 68.4%
viability, T/C [6]: 55.1%
viability, T/C [7]: 45.6%
viability, T/C [8]: 42%
viability, T/C [25]: 73.2%
viability, T/C [26]: 58.7%
viability, T/C [9]: 60.4%
viability, T/C [10]: 50.7%
viability, T/C [11]: 46.2%
viability, T/C [12]: 47%
viability, T/C [27]: 61.9%
viability, T/C [28]: 58.6%
viability, T/C [13]: 54.3%
viability, T/C [14]: 53.4%
viability, T/C [15]: 44.5%
viability, T/C [16]: 39.5%
viability, T/C [29]: 63.5%
viability, T/C [30]: 67.3%
viability, T/C [17]: 57.9%
viability, T/C [18]: 59.1%
viability, T/C [19]: 45.2%
viability, T/C [20]: 37%

From PubChem BioAssay AID1918935 (Molecular Pharmacology Branch, DTP, NCI, 2023)
